# Experiments:
# PPARγ = PPARγ expression in HUVECs, antibody staining, confocal microscopy; type: cell-based, human
# Description: Then, six 35-mm dishes were provided, and 2 mL/dish of the solution with the adjusted HUVEC density was inoculated. Auraptene (10 mM) and tangeretin (10 mM) were each added at 2 μL (final concentration: 10 μM)/dish to two dishes. Also, DMSO was added at 2 μL/dish to the remaining 2 dishes to prepare a control.
# The supernatant of the HUVECs cultured in each 35-mm dish was removed, and 2 mL/dish of 4% paraformaldehyde in a phosphate buffer solution was added. The cells were left standing at room temperature for 1 hour.
# The solution was removed, and then, the cells were rinsed twice. 2 mL/dish of 0.5% Triton-X00 (Wako Pure Chemical Industries, Ltd.) in PBS was added, and the cells were left standing at room temperature for 5 minutes. The solution was removed, and then, the cells were rinsed twice. 1 mL/dish of an anti-ABCD3 antibody, an anti-PPARα antibody or an anti-PPARγ antibody, each of which was diluted 150-fold with a FACS buffer, was added, and the cells were left standing at room temperature for 2 hours for reaction.
# The solution was removed, and then, the cells were rinsed twice. 1 mL/dish of DyLight 649-labeled anti-Rabbit IgG antibody diluted 500-fold with a FACS buffer was added, and the cells were left standing at room temperature for 1 hour in the dark for reaction. The solution was removed, and then, the cells were rinsed twice. Two drops of Diamond Antifade Mountant with DAPI were added to the cells, and a round glass cover was put on the cells, followed by fluorescence photographing under a confocal laser scanning microscope.
# [1] = test system: human vascular endothelial cells (HUVECs); assay: Suppression of cell death by addition of medium chain fatty acid, crystal violet / phase contrast microscopy; type: cell-based; conditions: auraptene 5 μM used alone, printed at 37° C. (FIG. 19A)
compound,measurement,setting,value
"CC(C)=CCC/C(C)=C/COc1ccc2ccc(=O)oc2c1 [auraptene, 7-geranyloxycoumarin]",expression of PPARγ,"PPARγ; HUVECs, 40° C. and 1 day, 10 μM, vs DMSO",increase in the expression of PPARγ
same,PPARγ,"PPARγ; Table 2 summary, HUVECs 40° C., 37° C. as comparative control",Unchanged
same,"overall number of cells, auraptene alone",[1],increase the overall number of cells

# From US11559512B2, “Composition for prevention, alleviation, and/or treatment of heat illness” (priority 2017, dated 2023)
